From US8158810B2 (Gilead Sciences, Inc., priority 2006, dated 2012)

Assays:
hMAO-A = target: T1, hMAO-A (Homo sapiens, UniProt P21397); experiment: MAO-A inhibition assay; assay type: biochemical; conditions: No = no inhibition; for hMAO-A inhibition up to 10 μM: printed in the IC50 hMAO-A column
T1 construct: purchased Sigma M7316
T1 sequence (P21397 1-527): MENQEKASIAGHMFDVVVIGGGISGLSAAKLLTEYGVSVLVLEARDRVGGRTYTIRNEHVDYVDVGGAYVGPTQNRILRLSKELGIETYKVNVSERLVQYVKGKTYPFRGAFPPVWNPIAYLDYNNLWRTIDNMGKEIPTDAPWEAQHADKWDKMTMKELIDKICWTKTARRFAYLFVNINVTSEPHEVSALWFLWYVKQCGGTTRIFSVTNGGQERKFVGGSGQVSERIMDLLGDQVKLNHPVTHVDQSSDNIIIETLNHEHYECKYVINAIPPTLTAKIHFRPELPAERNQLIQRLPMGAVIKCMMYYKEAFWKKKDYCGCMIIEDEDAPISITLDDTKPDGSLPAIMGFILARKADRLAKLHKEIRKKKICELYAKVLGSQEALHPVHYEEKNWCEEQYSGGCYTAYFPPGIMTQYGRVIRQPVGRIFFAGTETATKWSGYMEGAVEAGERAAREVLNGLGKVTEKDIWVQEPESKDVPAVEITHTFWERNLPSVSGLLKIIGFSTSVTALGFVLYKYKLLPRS
Description: (§1) MAO-A (Sigma M7316) and MAO-B (Sigma M7441) inhibition assays were conducted in 96-well micro-plates according to the method described by Zhou et al. [Analytical Biochemistry 253, 169-174, 1997]. […] Reactions were initiated by the addition of a pre-mixed solution of tyramine, horseradish peroxidase and Amplex Red, and were allowed to proceed at 37° C. for 30 min. Enzyme activities were determined by measuring absorbance at 570 nm (SpectralMax Plate reader), absorbance of oxidized Amplex Red generated by this horseradish peroxidase-coupled reaction. Nonspecifically formed products were determined in the presence of 2 and 10 µM clorgyline and deprenyl for MAO-A and MAO-B, respectively. IC50 values were determined by fitting concentration-inhibition data to sigmoidal dose-response curves with two-floating parameters: IC50 and Hill coefficient.

hMAO-B = target: T2, hMAO-B (Homo sapiens, UniProt P27338); experiment: MAO-B inhibition assay; assay type: biochemical; conditions: No = no inhibition; for hMAO-B inhibition at 10 μM: printed in the IC50 hMAO-B column
T2 construct: purchased Sigma M7441
T2 sequence (P27338 1-520): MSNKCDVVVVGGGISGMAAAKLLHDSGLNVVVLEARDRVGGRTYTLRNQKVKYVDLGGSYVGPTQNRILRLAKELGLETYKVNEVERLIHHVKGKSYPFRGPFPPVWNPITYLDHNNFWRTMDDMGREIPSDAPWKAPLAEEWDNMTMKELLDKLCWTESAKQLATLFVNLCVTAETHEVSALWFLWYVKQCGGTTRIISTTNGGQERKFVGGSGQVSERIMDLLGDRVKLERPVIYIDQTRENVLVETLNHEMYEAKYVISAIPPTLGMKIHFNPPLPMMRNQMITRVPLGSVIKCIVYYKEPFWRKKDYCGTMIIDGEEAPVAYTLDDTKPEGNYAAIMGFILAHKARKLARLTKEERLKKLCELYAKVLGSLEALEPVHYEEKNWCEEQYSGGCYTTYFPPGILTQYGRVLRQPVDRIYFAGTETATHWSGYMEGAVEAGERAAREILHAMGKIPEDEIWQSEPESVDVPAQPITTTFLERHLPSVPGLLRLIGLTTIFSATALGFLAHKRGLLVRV
Description: as §1

| Structure (SMILES) | hMAO-A inhibition up to 10 μM (hMAO-A) | hMAO-B inhibition up to 10 μM (hMAO-B; up to 10 μM) | hMAO-A inhibition up to 30 μM (hMAO-A) | hMAO-B inhibition up to 30 μM (hMAO-B) | hMAO-B inhibition at 10 μM (hMAO-B) |
| --- | --- | --- | --- | --- | --- |
| O=c1c(-c2ccc(O)cc2)coc2cc(OCc3noc(-c4cccc(F)c4)n3)ccc12 [PT-42, 7-{[5-(3-fluorophenyl)(1,2,4-oxadiazol-3-yl)]methoxy}-3-(4-hydroxyphenyl)chromen-4-one] | No | No |  |  |  |
| O=c1c(-c2ccc(O)cc2)coc2cc(OCc3nc(-c4ccccc4)no3)ccc12 [PT-43, 3-(4-hydroxyphenyl)-7-[(3-phenyl(1,2,4-oxadiazol-5-yl))methoxy]chromen-4-one] |  |  | No | No |  |
| O=c1c(-c2ccc(O)cc2)coc2cc(OCc3nc(-c4ccc(Cl)cc4)no3)ccc12 [PT-44, 3-(4-hydroxyphenyl)-7-({3-[4-chlorophenyl](1,2,4-oxadiazol-5-yl)}methoxy)chromen-4-one] |  |  | No | No |  |
| O=c1c(-c2ccc(O)cc2)coc2cc(OCc3cc(-c4cc(C(F)(F)F)cc(C(F)(F)F)c4)on3)ccc12 [PT-62, 7-({5-[3,5-bis(trifluoromethyl)phenyl]isoxazol-3-yl}methoxy)-3-(4-hydroxyphenyl)chromen-4-one] | No |  |  |  | no |
| NC(=O)c1ccc(-c2coc3cc(OCc4noc(-c5cc(F)cc(C(F)(F)F)c5)n4)ccc3c2=O)cc1 [PT-72, 4-[7-({5-[3-fluoro-5-(trifluoromethyl)phenyl](1,2,4-oxadiazol-3-yl)}methoxy)-4-oxochromen-3-yl]benzamide] | No |  |  |  | No |
| O=c1c(-c2ccc(O)cc2)coc2cc(OCc3nnc(-c4ccccc4Cl)o3)ccc12 [PT-80, 7-{[5-(2-chlorophenyl)(1,3,4-oxadiazol-2-yl)]methoxy}-3-(4-hydroxyphenyl)chromen-4-one] | No |  |  |  | No |
| O=C(COc1ccc2c(=O)c(-c3ccc(O)cc3)coc2c1)c1ccccc1C(F)(F)F [PT-85, 3(4-hydroxyphenyl)-7-{2-oxo-2-[2-(trifluoromethyl)phenyl]ethoxy}chromen-4-one] | No |  |  |  | No |
| O=c1c(-c2ccc(O)cc2)coc2cc(OCc3cncc(C(F)(F)F)c3)ccc12 [PT-94, 3-(4-hydroxyphenyl)-7-{[5-(trifluoromethyl)(3-pyridyl)]methoxy}chromen-4-one] | No |  |  |  | No |
| O=c1c(-c2ccc(O)cc2)coc2cc(OCc3nnc(-c4cccnc4)o3)ccc12 [PT-110, 3-(4-hydroxyphenyl)-7-[(5-(3-pyridyl)(1,3,4-oxadiazol-2-yl))methoxy]chromen-4-one] | No |  |  |  | No |
| O=c1c(-c2ccc(O)cc2)coc2cc(OCc3nc(-c4cccnc4)no3)ccc12 [PT-114, 3-(4-hydroxyphenyl)-7-[(3-(3-pyridyl)(1,2,4-oxadiazol-5-yl))methoxy]chromen-4-one] | No |  |  |  | No |
| O=c1c(-c2ccc(O)cc2)coc2cc(OCc3nc(-c4cccc(C(F)(F)F)c4)no3)ccc12 [PT-115, 3-(4-hydroxyphenyl)-7-({3-[3-(trifluoromethyl)phenyl](1,2,4-oxadiazol-5-yl)}methoxy)chromen-4-one] | No |  |  |  | No |
| CNC(=O)c1coc(COc2ccc3c(=O)c(-c4ccc(O)cc4)coc3c2)n1 [PT-118, (2-{[3-(4-hydroxyphenyl)-4-oxochromen-7-yloxy]methyl}(1,3-oxazol-4-yl))-N-methylcarboxamide] | No |  |  |  | No |
